Laboratory results as given in patent US7524930B2, “Tumor antigen” (Green Peptide Co., Ltd, priority 2003, dated 2009).

Legend:
Format in all cases: cell-based, human
[1] = tested on: peripheral blood mononuclear cells derived from a cancer patient; experiment: CTL induction by peptide from autologous PBMC of cancer patient, IFN-γ production on recognition of target cells (Example 5); details: for Recognition of tumor cells by PBMC stimulated in vitro with peptide (IFN-γ production): SW620, CA9-22 and Panc-1 HLA-A2+ tumor cells, result in words; for IFN-γ production from peripheral blood mononuclear cells in recognition of target cells: PBMC stimulated with 10 μM peptide
Source text: Among the peptides that were able to enhance IFN-γ production from the OK-CTLp or OK-CTL clone in Example 4, those from P1 to P19 were examined for their ability to induce CTL from peripheral blood mononuclear cells derived from a cancer patient. The method for inducing CTL by a peptide was according to the well-known method (J. Exp. Med., 187:277-288, 1998; Cancer Res., 59:4056-4063, 1999.) Specifically, autologous peripheral blood mononuclear cells (PBMC) derived from a cancer patient, from whom OK-CTLp was obtained, were incubated together with the peptide (10 μM.) The cells were re-stimulated at day 10 and 14 after the start of culturing, using autologous PBMCs as an antigen presenting cell (APC) which were pulsed with 10 μM of the same peptide for 2 h and exposed to irradiation (30 gray.) At day 21 after the start of culturing, the cells were collected to test for surface phenotype. In addition, the cells were examined for the recognition of various target cells, using IFN-γ production measured by ELISA when they were cultured together with the target cells as an indicator. As a target cells, SW620 cell, CA9-22 cell, and Panc-1 cell, which are the HLA-A2^+ tumor cells, were used.

[2] = tested on: peripheral blood mononuclear cells derived from a cancer patient; experiment: as above; details: PBMC stimulated with 10 μM peptide
OK-CTL clone = experiment: IFN-γ production by OK-CTL clones cultured with COS-7 cells cotransfected with cDNA clone and HLA-A0207 cDNA; set-up: unit not given here
Method: Since CTL activated by recognizing the tumor antigen is a population of cells recognizing plural kinds of tumor antigens, the above-described OK-CTLp was subjected to cloning by limiting dilution culture (0.3, 0.5, 1, 2, and 4 cells/well) to obtain an OK-CTL clone (J. Immunol., 163:4994-5004, 1999. ) These clones are those having CTL activity selected by culturing them together with COS-7 cells into which 100 ng/well of any one of the above-described seven cDNA clones and 100 ng/well of HLA-A0207 cDNA were cotransfected, or with the tumor cells, in a cell ratio of 1:1, and measuring IFN-γ production. Specifically, three hundred CTL clones were obtained from the parent line OK-CTLp by a limiting dilution culture. Eighty CTL clones among them had HLA-A2-restricted tumor-specific CTL activity and expressed the phenotype of CD3^+ CD4^− CD8^+ and TCR αβ^+.

[3] = CTL clone 0.5-1-D6, cDNA with HLA-A0207 cDNA in COS-7
[4] = CTL clone 0.5-1-D7, cDNA with HLA-A0207 cDNA in COS-7
[5] = CTL clone 0.5-1-H2, cDNA with HLA-A0207 cDNA in COS-7
[6] = CTL clone 0.5-1-H12, cDNA with HLA-A0207 cDNA in COS-7
[7] = CTL clone 0.5-2-A4, cDNA with HLA-A0207 cDNA in COS-7
[8] = CTL clone 1-2-D1, cDNA with HLA-A0207 cDNA in COS-7
[9] = CTL clone 1-2-D7, cDNA with HLA-A0207 cDNA in COS-7
[10] = CTL clone 1-2-D12, cDNA with HLA-A0207 cDNA in COS-7
[11] = CTL clone 2-1-F4, cDNA with HLA-A0207 cDNA in COS-7
[12] = CTL clone 2-1-H12, cDNA with HLA-A0207 cDNA in COS-7
[13] = CTL clone 2-2-B4, cDNA with HLA-A0207 cDNA in COS-7
[14] = CTL clone 2-2-H3, cDNA 100 ng/well with HLA-A0207 cDNA in COS-7
[15] = CTL clone 4-1-H8, cDNA with HLA-A0207 cDNA in COS-7
[16] = CTL clone 4-2-A11, cDNA with HLA-A0207 cDNA in COS-7
[17] = CTL clone 4-2-B3, cDNA with HLA-A0207 cDNA in COS-7

Substance	Recognition of tumor cells by PBMC stimulated in vitro with peptide (IFN-γ production) [1]	IFN-γ production from peripheral blood mononuclear cells in recognition of target cells ([1]; target CA9-22 (HLA-A0207/24))	IFN-γ production from peripheral blood mononuclear cells in recognition of target cells ([1]; target Panc-1 (HLA-A0201/11))	IFN-γ production from peripheral blood mononuclear cells in recognition of target cells ([1]; target SW620 (HLA-A0201/24))	IFN-γ production from peripheral blood mononuclear cells in recognition of target cells ([2]; target COLO320 (HLA-A24/24))	IFN-γ production from peripheral blood mononuclear cells in recognition of target cells ([2]; target QG56 (HLA-A26/26))	IFN-γ production from peripheral blood mononuclear cells in recognition of target cells ([2]; target RERF-LC-MS (HLA-A11/11))	IFN-γ production by CTL clone (OK-CTL clone; [3])	IFN-γ production by CTL clone (OK-CTL clone; [4])	IFN-γ production by CTL clone (OK-CTL clone; [5])	IFN-γ production by CTL clone (OK-CTL clone; [6])	IFN-γ production by CTL clone (OK-CTL clone; [7])	IFN-γ production by CTL clone (OK-CTL clone; [8])	IFN-γ production by CTL clone (OK-CTL clone; [9])	IFN-γ production by CTL clone (OK-CTL clone; [10])	IFN-γ production by CTL clone (OK-CTL clone; [11])	IFN-γ production by CTL clone (OK-CTL clone; [12])	IFN-γ production by CTL clone (OK-CTL clone; [13])	IFN-γ production by CTL clone (OK-CTL clone; [14])	IFN-γ production by CTL clone (OK-CTL clone; [15])	also measured
ALVEFEDVL (Designed peptide having an ability to activate HLA-A2 restricted Cytotoxic T lymphocytes) [Peptide P6, Gene 2 (HNRPL) 140-148]	produced IFN-γ in a significant amount	863 pg/mL	527 pg/mL	344 pg/mL	40 pg/mL	0 pg/mL	8 pg/mL	–	–	–	–	–	–	–	–	–	–	–	–	–	–
ASLDSDPWV (Designed peptide having an ability to activate HLA-A2 restricted Cytotoxic T lymphocytes) [Peptide P10, Gene 3 (WHSC2) 103-111]	produced IFN-γ in a significant amount	130 pg/mL	163 pg/mL	108 pg/mL	0 pg/mL	0 pg/mL	0 pg/mL	–	–	–	–	–	–	–	–	–	–	–	–	–	–
Clone 5: cDNA clone from Panc-1, 2404 bp [AB044546], homology with ppMAPkkk	–	–	–	–	–	–	–	0	0	81	0	0	0	0	0	>1000	0	0	0	0	IFN-γ production by CTL clone (OK-CTL clone; [16]): 0; IFN-γ production by CTL clone (OK-CTL clone; [17]): 0
clone 1: cDNA clone from Panc-1, 1775 bp [AB044550], high homology with UBE2V	–	–	–	–	–	–	–	19	27	0	0	0	21	0	0	0	134	0	110	0	IFN-γ production by CTL clone (OK-CTL clone; [16]): 0; IFN-γ production by CTL clone (OK-CTL clone; [17]): 0
